According to patent US8609862B2, “Use of an adrenal hormone-modifying agent” (Novartis AG, priority 2010, dated 2013):

What was measured:
Rat CYP11B2 = target: T1, Rat CYP11B2 (Rattus norvegicus, UniProt P30099); experiment: In vitro rat CYP11B2 assay; assay type: biochemical; conditions: V79-4 cell homogenate, 11-deoxycorticosterone to aldosterone, SPA
T1 construct: made in house; host or cells: V79-4 cell line #305 (stably selected with geneticin and hygromycin); sonicated homogenate, 500 x g supernatant
T1 sequence (P30099 35-510): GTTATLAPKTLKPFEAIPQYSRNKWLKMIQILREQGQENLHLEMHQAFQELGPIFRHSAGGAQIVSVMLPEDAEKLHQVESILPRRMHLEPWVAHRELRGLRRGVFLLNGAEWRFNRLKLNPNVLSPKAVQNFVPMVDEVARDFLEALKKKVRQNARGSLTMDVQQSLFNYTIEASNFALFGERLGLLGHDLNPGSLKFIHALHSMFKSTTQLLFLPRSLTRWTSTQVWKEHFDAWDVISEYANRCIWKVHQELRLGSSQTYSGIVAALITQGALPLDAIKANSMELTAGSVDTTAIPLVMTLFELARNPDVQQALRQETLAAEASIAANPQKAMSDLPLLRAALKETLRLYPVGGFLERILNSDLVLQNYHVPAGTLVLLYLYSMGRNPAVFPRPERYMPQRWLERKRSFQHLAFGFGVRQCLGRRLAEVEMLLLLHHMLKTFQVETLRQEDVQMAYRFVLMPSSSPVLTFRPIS
Description: Following 2 days of growth, cells are washed once with PBS, scraped and collected in PBS, and centrifuged at 1,300 rpm for 6 min. […] The sonication procedure is repeated 3 more times, with a 5 min incubation on ice between sonications. The sonicated material is then spun at 500×g for 4 min to remove unbroken cells. The supernatant is brought to a final glycerol concentration of 5%, flash-frozen in liquid nitrogen, and stored at −80° C.
The CYP11B2 assay is performed in 96-well U-bottom non-tissue-culture-treated plates. […] Plates are then centrifuged at 2,400 rpm for 6 min, and 100 μl of supernatant is removed for measurement of aldosterone content by scintillation proximity assay (SPA).
Measurement of aldosterone is performed using a 96-well plate format. […] Anti-mouse PVT SPA beads (50 μl) are then added to each well and incubated for 4 hr at room temperature prior to counting in a Microbeta plate counter. The amount of aldosterone in each sample is calculated by comparing with a standard curve generated using known quantities of the hormone.
Full concentration-response curves of an inhibitor are performed at least 3 times. The IC50 values are derived using a non-linear least squares curve-fitting program from DBS XLfit.

CYP11B1 = target: T2, CYP11B1 (Rattus norvegicus, UniProt P15393); experiment: In vivo CYP11B1 assay: plasma corticosterone concentration (PCC) in ACTH-infused conscious rats; conditions: ACTH infusion; for % Reduction from baseline PCC t = 1 h: 1 h after dosing; for % Reduction from baseline PCC 8 h: 8 h after dosing
T2 construct: from tissue; host or cells: whole animal: conscious male Sprague-Dawley rats under ACTH infusion (the adrenal gland as site of the enzyme comes from the background, b5)
T2 sequence (P15393 25-499): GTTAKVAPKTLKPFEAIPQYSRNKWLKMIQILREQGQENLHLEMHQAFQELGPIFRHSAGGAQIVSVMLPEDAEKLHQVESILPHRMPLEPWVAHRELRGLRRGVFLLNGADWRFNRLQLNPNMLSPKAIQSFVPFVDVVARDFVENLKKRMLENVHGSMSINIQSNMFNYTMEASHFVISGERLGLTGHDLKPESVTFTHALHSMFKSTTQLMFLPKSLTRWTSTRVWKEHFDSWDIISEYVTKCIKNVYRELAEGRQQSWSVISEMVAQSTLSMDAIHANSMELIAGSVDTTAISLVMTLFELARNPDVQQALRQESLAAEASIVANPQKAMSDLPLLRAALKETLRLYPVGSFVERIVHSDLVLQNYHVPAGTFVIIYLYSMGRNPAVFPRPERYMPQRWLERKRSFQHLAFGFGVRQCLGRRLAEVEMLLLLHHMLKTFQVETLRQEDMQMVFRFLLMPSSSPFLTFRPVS
Description: (§1) The in vivo effects of compounds on plasma aldosterone concentration (PAC) and plasma glucocorticoid (corticosterone) concentration (PCC) were evaluated in conscious rats.
(§2) Male Sprague-Dawley rats (˜400-600 g body weight) were surgically instrumented with a femoral arterial and venous catheter. The catheters were exteriorized from the lower back through a stainless steel spring and swivel system that enabled the rats to move freely at all times. Rats were allowed at least one week to recover from the surgery before initiating the experiments.
(§3) On the morning of the experiment, a pretreatment blood sample was collected on heparin from the arterial catheter. The blood samples were spun in a refrigerated centrifuge to generate plasma. The plasma was stored frozen at −70° C. until the later measurement of PAC and PCC (by radioimmunoassay). Adrenocorticotropic hormone (ACTH(1-24), referred to herein as ACTH) was then administered as an intravenous (i.v.) bolus (100 ng/kg) followed by a continuous i.v. infusion (30 ng/kg/min) for 9 hours. After one hour of infusion, a baseline (time 0) blood sample was withdrawn from the arterial catheter and processed and stored as described above. The rats were then dosed (typically 0.01 to 100 mg/kg) with the test compound p.o. by oral gavage or parenterally via the arterial catheter (i.a.). Compounds were formulated in an appropriate vehicle (e.g., water (p.o.) or saline (i.a.)) at a physiologically compatible volume (typically 1-2 ml/kg). Additional blood samples were withdrawn at 0.083 (i.a. only), 0.25, 0.5, 1, 2, 3, 4, 5, 6, 7, 8, and 24 hours after dosing with compound and processed and stored as above for later determination of PAC, PCC, and plasma compound concentration (by LC/MS/MS). Oral bioavailability and traditional pharmacokinetic (PK) parameters were estimated from the plasma compound concentrations.
(§4) Based on the plasma compound concentration at each dose, the PK/PD (pharmacodynamic) profiles (reduction of PAC and PCC) of each compound were determined.

CYP11B2 = target: T3, CYP11B2 (Rattus norvegicus, UniProt P30099); experiment: In vivo assay: plasma aldosterone concentration (PAC) in ACTH-infused conscious rats; conditions: ACTH infusion; for % Reduction from baseline PAC t = 1 h: 1 h after dosing; for % Reduction from baseline PAC 8 h: 8 h after dosing
T3 construct: from tissue; host or cells: whole animal: conscious male Sprague-Dawley rats under ACTH infusion (the adrenal gland as site of the enzyme comes from the background, b5)
T3 sequence (P30099 35-510): T1 sequence (P30099 35-510)
Description: as §1, §2, §3, §4

Row | SMILES | IC50 (Rat CYP11B2) | % Reduction from baseline PCC t = 1 h (CYP11B1; 10 mg/kg p.o.) | % Reduction from baseline PCC 8 h (CYP11B1; 10 mg/kg p.o.) | % Reduction from baseline PAC t = 1 h (CYP11B2; 10 mg/kg p.o.) | % Reduction from baseline PAC 8 h (CYP11B2; 10 mg/kg p.o.) | % Reduction from baseline PCC t = 1 h (CYP11B1; 3 mg/kg i.a.) | % Reduction from baseline PCC 8 h (CYP11B1; 3 mg/kg i.a.) | % Reduction from baseline PAC t = 1 h (CYP11B2; 3 mg/kg i.a.) | % Reduction from baseline PAC 8 h (CYP11B2; 3 mg/kg i.a.) | % Reduction from baseline PCC t = 1 h (CYP11B1; 30 mg/kg i.a.) | % Reduction from baseline PCC 8 h (CYP11B1; 30 mg/kg i.a.) | % Reduction from baseline PAC t = 1 h (CYP11B2; 30 mg/kg i.a.) | % Reduction from baseline PAC 8 h (CYP11B2; 30 mg/kg i.a.)
1 | N#Cc1ccc(C2CCCCc3cncn32)c(Br)c1 (racemic) [3-bromo-4-(6,7,8,9-tetrahydro-5H-imidazo[1,5-a]azepin-5-yl)benzonitrile racemate, 3-bromo-4-(6,7,8,9-tetrahydro-5H-imidazo[1,5-a]azepin-5-yl)benzonitrile] | 1 nM | 70% | 87% | 79% | 89% |  |  |  |  |  |  |  | 
2 | N#Cc1ccc(C2CCCCc3cncn32)c(-c2ccc(F)cc2)c1 (single isomer, unassigned) [4′-fluoro-6-(6,7,8,9-tetrahydro-5H-imidazo[1,5-a]azepin-5-yl)biphenyl-3-carbonitrile] | 1 nM |  |  |  |  | 89% | 43% | 83% | 76% |  |  |  | 
3 | COc1ccc(CN(C)C(=O)C2(c3ccc(C#N)cc3Cl)CCc3cncn32)cc1 (stereo not drawn) [5-(2-chloro-4-cyanophenyl)-N-(4-methoxybenzyl)-N-methyl-6,7-dihydro-5H-pyrrolo[1,2-c]imidazole-5-carboxamide] | 5 nM |  |  |  |  |  |  |  |  | 76% | 78% | 23% | 59%
